These are literature values, as cited in patent US5613958A, “Transdermal delivery systems for the modulated administration of drugs” (PP Holdings Inc., priority 1995, dated 1997).

The conditions of this series: for accumulation in plasma: during continuous ISDN therapy.

The structures appear in SMILES notation.

Consider `O=[N+]([O-])O[C@H]1CO[C@H]2[C@@H]1OC[C@H]2O` [IS-2-MN, isosorbide 2-mononitrate], for which the accumulation in plasma entry is recorded as “accumulate in the plasma”.
As for `O=[N+]([O-])O[C@@H]1CO[C@H]2[C@@H]1OC[C@@H]2O` [IS-5-MN, isosorbide 5-mononitrate], the accumulation in plasma entry is recorded as “accumulate in the plasma”. Moreover, the antianginal efficacy entry (dose regimens letting IS-5-MN fall below 100 ng/ml before next dose) is listed as “continuous antianginal efficacy”. Moreover, the rate of elimination result (metabolite of ISDN) was “slowest rate of elimination”.
